Common to all, as to format: cell-based
In data set [1] the test system is recombinant NL4-3 virus (Renilla luciferase in nef). Put plainly: HIV cell culture assay (antiviral activity, luciferase readout in MT-2 cells). In a few lines:
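MT-2 cells were infected for 4-5 days with 293T-derived recombinant NL4-3 reporter virus in the presence of serially diluted compound. Antiviral activity was quantified as luciferase activity using a live-cell substrate. EC50 was derived from the median effect equation.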

The subject of the next data set is uninfected MT2 cells. Briefly: Compound cytotoxicity, XTT-based colorimetric assay. The following applies: day 4, XTT. The method, then:
(§1) Compound cytotoxicity and the corresponding CC50 values were determined using the same protocol as described in the antiviral assay except that uninfected cells were used. Cytotoxicity was assessed on day 4 in uninfected MT2 cells by using an XTT (2,3-bis[2-Methoxy-4-nitro-5-sulfophenyl]-2H-tetrazolium-5-carboxyanilide inner salt)-based colorimetric assay (Sigma-Aldrich, St Louis, Mo.).
On the technique in general: Tetrazolium assays rely on reduction of a dye to a coloured formazan, in cell work by metabolically active cells.

Assay in data set [2]: as above
To be noted: human; uninfected MT2 cells, day 4, XTT. The method, then: as §1

The mark [3] stands for this setting: MT=2 cells infected for 4-5 days with the recombinant virus, luciferase activity, read-out: EC50.

Where two headings read alike, the source gives them in different places.

The EC50 is the concentration that produces a half-maximal response. As a reminder, the CC50 is the concentration giving 50% cytotoxicity. Turning to `Cn1nc(NS(C)(=O)=O)c2c(Cl)ccc(-n3c([C@H](Cc4cc(F)cc(F)c4)NC(=O)Cn4nc(C(F)(F)F)c5c4C(F)(F)[C@@H]4C[C@H]54)nc4cc(-c5ccn(CC(F)(F)C(F)F)n5)ccc4c3=O)c21` [Example 59, N—((S)-1-((3P)-3-(4-chloro-1-methyl-3-(methylsulfonamido)-1H-indazol-7-yl)-4-oxo-7-(1-(2,2,3,3-tetrafluoropropyl)-1H-pyrazol-3-yl)-3,4-dihydroquinazolin-2-yl)-2-(3,5-difluorophenyl)ethyl)-2-((3bS,4aR)-5,5-difluoro-3-(trifluoromethyl)-3b,4,4a,5-tetrahydro-1H-cyclopropa[3,4]cyclopenta[1,2-c]pyrazol-1-yl)acetamide], the EC50 in data set [1] (setting [3]) stood at 0.11 nM. The compound further returned a CC50 in the data set on uninfected MT2 cells of over 100 nM.

As to `CC(C(=O)NC(Cc1cc(F)cc(F)c1)c1nc2cc(-c3ccn(CC(C)(F)F)n3)ccc2c(=O)n1-c1ccc(Cl)c2c(NS(C)(=O)=O)nn(C)c12)n1ccc(C2CC2)n1` [Example 58, (S)—N—((S)-1-((3P)-3-(4-chloro-1-methyl-3-(methylsulfonamido)-1H-indazol-7-yl)-7-(1-(2,2-difluoropropyl)-1H-pyrazol-3-yl)-4-oxo-3,4-dihydroquinazolin-2-yl)-2-(3,5-difluorophenyl)ethyl)-2-(3-cyclopropyl-1H-pyrazol-1-yl)propanamide], in data set [1] (setting [3]), the EC50 came to 0.046 nM. Also, the CC50 in the data set with uninfected MT2 cells was over 100 nM.

Consider `Cn1nccc1-c1ccc2c(=O)n(-c3ccc(Cl)c4c(NS(C)(=O)=O)nn(C)c34)c([C@H](Cc3cc(F)cc(F)c3)NC(=O)Cn3nc(C(F)F)c4c3C(F)(F)[C@@H]3C[C@H]43)nc2c1` (atropisomer, axis not shown; (P)) [Example 20, N—((S)-1-((3P)-3-(4-chloro-1-methyl-3-(methylsulfonamido)-1H-indazol-7-yl)-7-(1-methyl-1H-pyrazol-5-yl)-4-oxo-3,4-dihydroquinazolin-2-yl)-2-(3,5-difluorophenyl)ethyl)-2-((3bS,4aR)-3-(difluoromethyl)-5,5-difluoro-3b,4,4a,5-tetrahydro-1H-cyclopropa[3,4]cyclopenta[1,2-c]pyrazol-1-yl)acetamide], for which, in data set [1] (Renilla, NL43), the 50% effective concentration (EC50) amounted to 0.056 nM. In addition, in data set [2], the 50% cytotoxic concentration (CC50) at 4 days is over 500 nM.

`Cn1nc(NS(C)(=O)=O)c2c(Cl)ccc(-n3c([C@H](Cc4cc(F)cc(F)c4)NC(=O)Cn4nc(C(F)F)c5c4C(F)(F)[C@@H]4C[C@H]54)nc4cc(-c5nccnc5C(F)(F)F)ccc4c3=O)c21` (atropisomer, axis not shown; (P)) [Example 23, N—((S)-1-((3P)-3-(4-chloro-1-methyl-3-(methylsulfonamido)-1H-indazol-7-yl)-4-oxo-7-(3-(trifluoromethyl)pyrazin-2-yl)-3,4-dihydroquinazolin-2-yl)-2-(3,5-difluorophenyl)ethyl)-2-((3bS,4aR)-3-(difluoromethyl)-5,5-difluoro-3b,4,4a,5-tetrahydro-1H-cyclopropa[3,4]cyclopenta[1,2-c]pyrazol-1-yl)acetamide]: the EC50 in data set [1] (Renilla, NL43) came to 0.071 nM. In data set [2], the 50% cytotoxic concentration (CC50) at 4 days is over 100 nM.

For `CC(F)(F)Cn1ccc(-c2ccc3c(=O)n(-c4ccc(Cl)c5c(NS(=O)(=O)C6CC6)nn(CC(F)F)c45)c([C@H](Cc4cc(F)cc(F)c4)NC(=O)Cn4nc(C(F)F)c5c4C(F)(F)[C@@H]4C[C@H]54)nc3c2)n1` (atropisomer, axis not shown; (P)) [Example 69, N—((S)-1-((3P)-3-(4-chloro-3-(cyclopropanesulfonamido)-1-(2,2-difluoroethyl)-1H-indazol-7-yl)-7-(1-(2,2-difluoropropyl)-1H-pyrazol-3-yl)-4-oxo-3,4-dihydroquinazolin-2-yl)-2-(3,5-difluorophenyl)ethyl)-2-((3bS,4aR)-3-(difluoromethyl)-5,5-difluoro-3b,4,4a,5-tetrahydro-1H-cyclopropa[3,4]cyclopenta[1,2-c]pyrazol-1-yl)acetamide], the concentration for a half-maximal effect (EC50) in data set [1] (Renilla, NL43) was 0.16 nM. This compound had a CC50 at 4 days in data set [2] of over 100 nM.

Regarding `Cn1nc(NS(C)(=O)=O)c2c(Cl)ccc(-n3c([C@H](Cc4cc(F)cc(F)c4)NC(=O)Cn4nc(C(F)F)c5c4C(F)(F)[C@@H]4C[C@H]54)nc4cc(-c5cccc(C(F)F)c5F)ccc4c3=O)c21` (atropisomer, axis not shown; (P)) [Example 18, N—((S)-1-((3P)-3-(4-chloro-1-methyl-3-(methylsulfonamido)-1H-indazol-7-yl)-7-(3-(difluoromethyl)-2-fluorophenyl)-4-oxo-3,4-dihydroquinazolin-2-yl)-2-(3,5-difluorophenyl)ethyl)-2-((3bS,4aR)-3-(difluoromethyl)-5,5-difluoro-3b,4,4a,5-tetrahydro-1H-cyclopropa[3,4]cyclopenta[1,2-c]pyrazol-1-yl)acetamide], in data set [1] (Renilla, NL43), the concentration for a half-maximal effect (EC50) turned out to be 0.54 nM. The CC50 at 4 days in data set [2] is over 500 nM.

Regarding `Cn1nc(NS(C)(=O)=O)c2c(Cl)ccc(-n3c([C@H](Cc4cc(F)cc(F)c4)NC(=O)Cn4nc(C(F)F)c5c4C(F)(F)[C@@H]4C[C@H]54)nc4cc(-c5ccc(F)c(C(F)(F)F)n5)ccc4c3=O)c21` (atropisomer, axis not shown; (P)) [Example 30, N—((S)-1-((3P)-3-(4-chloro-1-methyl-3-(methylsulfonamido)-1H-indazol-7-yl)-7-(5-fluoro-6-(trifluoromethyl)pyridin-2-yl)-4-oxo-3,4-dihydroquinazolin-2-yl)-2-(3,5-difluorophenyl)ethyl)-2-((3bS,4aR)-3-(difluoromethyl)-5,5-difluoro-3b,4,4a,5-tetrahydro-1H-cyclopropa[3,4]cyclopenta[1,2-c]pyrazol-1-yl)acetamide], in data set [1] (Renilla, NL43), the concentration giving a half-maximal response (EC50) came to 0.22 nM. The half-maximal cytotoxic concentration (CC50) at 4 days in data set [2] is over 500 nM.

Regarding `Cn1nc(NS(C)(=O)=O)c2c(Cl)ccc(-n3c([C@H](Cc4cc(F)cc(F)c4)NC(=O)Cn4nc(C(F)F)c5c4C(F)(F)[C@H]4C[C@H]54)nc4cc(-c5cnn(C(F)F)c5)ccc4c3=O)c21` (atropisomer, axis not shown; (P)) [Example 35, N—((S)-1-((3P)-3-(4-chloro-1-methyl-3-(methylsulfonamido)-1H-indazol-7-yl)-7-(1-(difluoromethyl)-1H-pyrazol-4-yl)-4-oxo-3,4-dihydroquinazolin-2-yl)-2-(3,5-difluorophenyl)ethyl)-2-((3bS,4aR)-3-(difluoromethyl)-5,5-difluoro-3b,4,4a,5-tetrahydro-1H-cyclopropa[3,4]cyclopenta[1,2-c]pyrazol-1-yl)acetamide], the EC50 in data set [1] (Renilla, NL43) turned out to be 0.092 nM. This compound also showed a CC50 at 4 days in data set [2] of over 100 nM.

Turning to `Cc1cc(-c2ccc3c(=O)n(-c4ccc(Cl)c5c(NS(C)(=O)=O)nn(C)c45)c([C@H](Cc4cc(F)cc(F)c4)NC(=O)Cn4nc(C(F)F)c5c4C(F)(F)[C@@H]4C[C@H]54)nc3c2)nn1CC(F)(F)C(F)F` (atropisomer, axis not shown; (P)) [Example 57, N—((S)-1-((3P)-3-(4-chloro-1-methyl-3-(methylsulfonamido)-1H-indazol-7-yl)-7-(5-methyl-1-(2,2,3,3-tetrafluoropropyl)-1H-pyrazol-3-yl)-4-oxo-3,4-dihydroquinazolin-2-yl)-2-(3,5-difluorophenyl)ethyl)-2-((3bS,4aR)-3-(difluoromethyl)-5,5-difluoro-3b,4,4a,5-tetrahydro-1H-cyclopropa[3,4]cyclopenta[1,2-c]pyrazol-1-yl)acetamide], in data set [1] (Renilla, NL43), the EC50 is 0.13 nM. In data set [2], this compound came in with a cytotoxic concentration (CC50) at 4 days of over 100 nM.

The values above are taken from patent US20230013823A1, “INHIBITORS OF HUMAN IMMUNODEFICIENCY VIRUS REPLICATION” (VIV HEALTHCARE UK (No. 5) LIMITED, priority 2019, published 2023).
